From ChEMBL document CHEMBL1201862, “PubChem BioAssay data set” (2004)
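Five concentrations, 48 hours, 96-well plates. GI50 = concentration required for 50% inhibition of growth.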 Active and inactive are the calls of the source. No stated cut-off is given here; in the data, active = GI50 up to about 1.1 µM and inactive = higher.

How the values were obtained:
Assay in all cases: DTP human tumour cell line panel, 48 h
SK-MEL-2 = tested on: SK-MEL-2
MOLT-4 = tested on: MOLT-4
TK-10 = tested on: TK-10
786-0 = tested on: 786-0
KM-20L2 = tested on: KM-20L2
UO-31 = tested on: UO-31
RXF 631 = tested on: RXF 631
M19-MEL = tested on: M19-MEL
KM12 = tested on: KM12
RPMI-8226 = tested on: RPMI-8226
SF-539 = tested on: SF-539
CCRF-CEM = tested on: CCRF-CEM
HCT-15 = tested on: HCT-15
SN12C = tested on: SN12C
SK-OV-3 = tested on: SK-OV-3
DLD-1 = tested on: DLD-1
OVCAR-8 = tested on: OVCAR-8
UACC-62 = tested on: UACC-62
A498 = tested on: A498
DMS-114 = tested on: DMS-114
A549 = tested on: A549
CAKI-1 = tested on: CAKI-1
SNB-78 = tested on: SNB-78
LXFL 529 = tested on: LXFL 529
NCI-H23 = tested on: NCI-H23
OVCAR-4 = tested on: OVCAR-4
HOP-62 = tested on: HOP-62
M14 = tested on: M14
SW-620 = tested on: SW-620
SNB-75 = tested on: SNB-75
SNB-19 = tested on: SNB-19
HCT-116 = tested on: HCT-116
RXF 393 = tested on: RXF 393
SK-MEL-5 = tested on: SK-MEL-5
HT-29 = tested on: HT-29
SK-MEL-28 = tested on: SK-MEL-28
U-251 = tested on: U-251
K562 = tested on: K562
IGROV-1 = tested on: IGROV-1
SF-268 = tested on: SF-268
NCI-H522 = tested on: NCI-H522
DMS-273 = tested on: DMS-273
LOX IMVI = tested on: LOX IMVI
XF498 = tested on: XF498
NCI-H226 = tested on: NCI-H226
OVCAR-5 = tested on: OVCAR-5
Malme-3M = tested on: Malme-3M
SF-295 = tested on: SF-295
NCI-H460 = tested on: NCI-H460
COLO 205 = tested on: COLO 205
OVCAR-3 = tested on: OVCAR-3
ACHN = tested on: ACHN
EKVX = tested on: EKVX
HCC 2998 = tested on: HCC 2998
UACC-257 = tested on: UACC-257
HL-60 = tested on: HL-60
HOP-92 = tested on: HOP-92

Question: For Cc1cc(NS(=O)(=O)c2ccc(NC(=O)c3cccc4c(N)c5ccccc5nc34)cc2)no1, which GI50 (SK-MEL-2) is on record?
Answer: 18.7 µM (inactive)

Question: And the GI50 (MOLT-4)?
Answer: 28.9 µM (inactive)

Question: What about the GI50 (TK-10) of the same compound?
Answer: 43.1 µM (inactive)

Question: What about the GI50 (786-0) of the same compound?
Answer: 17.9 µM (inactive)

Question: What about the GI50 (KM-20L2) of the same compound?
Answer: 34.1 µM (inactive)

Question: What about the GI50 (UO-31) of the same compound?
Answer: 33.3 µM (inactive)

Question: And the GI50 (RXF 631)?
Answer: 18.4 µM (inactive)

Question: And the GI50 (M19-MEL)?
Answer: 21.2 µM (inactive)

Question: What about the GI50 (KM12) of the same compound?
Answer: 18.9 µM (inactive)

Question: What about the GI50 (RPMI-8226) of the same compound?
Answer: 24 µM (inactive)

Question: What about the GI50 (SF-539) of the same compound?
Answer: 21.1 µM (inactive)

Question: What about the GI50 (CCRF-CEM) of the same compound?
Answer: 21.4 µM (inactive)

Question: What about the GI50 (HCT-15) of the same compound?
Answer: 33 µM

Question: And the GI50 (SN12C)?
Answer: 19.2 µM (inactive)

Question: What about the GI50 (SK-OV-3) of the same compound?
Answer: 32.5 µM (inactive)

Question: What about the GI50 (DLD-1) of the same compound?
Answer: 30.6 µM (inactive)

Question: And the GI50 (OVCAR-8)?
Answer: 21.8 µM (inactive)

Question: What about the GI50 (UACC-62) of the same compound?
Answer: 28 µM (inactive)

Question: What about the GI50 (A498) of the same compound?
Answer: 19.4 µM (inactive)

Question: And the GI50 (DMS-114)?
Answer: 22.2 µM (inactive)

Question: And the GI50 (A549)?
Answer: > 100 µM (inactive)

Question: What about the GI50 (CAKI-1) of the same compound?
Answer: 34.8 µM (inactive)

Question: And the GI50 (SNB-78)?
Answer: 27.5 µM (inactive)

Question: What about the GI50 (LXFL 529) of the same compound?
Answer: 32 µM (inactive)

Question: And the GI50 (NCI-H23)?
Answer: 21.8 µM (inactive)

Question: What about the GI50 (OVCAR-4) of the same compound?
Answer: 27.3 µM (inactive)

Question: And the GI50 (HOP-62)?
Answer: 29.6 µM (inactive)

Question: And the GI50 (M14)?
Answer: 27.5 µM (inactive)

Question: What about the GI50 (SW-620) of the same compound?
Answer: 30 µM (inactive)

Question: And the GI50 (SNB-75)?
Answer: 68.7 µM (inactive)

Question: What about the GI50 (SNB-19) of the same compound?
Answer: 17.4 µM (inactive)

Question: What about the GI50 (HCT-116) of the same compound?
Answer: 14.5 µM (inactive)

Question: And the GI50 (RXF 393)?
Answer: 16.3 µM (inactive)

Question: And the GI50 (SK-MEL-5)?
Answer: > 10 µM (inactive)

Question: What about the GI50 (HT-29) of the same compound?
Answer: 27.9 µM (inactive)

Question: And the GI50 (SK-MEL-28)?
Answer: 22.1 µM (inactive)

Question: And the GI50 (U-251)?
Answer: 26.6 µM (inactive)

Question: What about the GI50 (K562) of the same compound?
Answer: 31.2 µM (inactive)

Question: What about the GI50 (IGROV-1) of the same compound?
Answer: 27.5 µM (inactive)

Question: And the GI50 (SF-268)?
Answer: 21 µM (inactive)

Question: And the GI50 (NCI-H522)?
Answer: 17 µM (inactive)

Question: What about the GI50 (DMS-273) of the same compound?
Answer: 19.2 µM (inactive)

Question: And the GI50 (LOX IMVI)?
Answer: 23.4 µM (inactive)

Question: And the GI50 (XF498)?
Answer: 21.8 µM (inactive)

Question: What about the GI50 (NCI-H226) of the same compound?
Answer: 17.7 µM (inactive)

Question: What about the GI50 (OVCAR-5) of the same compound?
Answer: 28.8 µM (inactive)

Question: What about the GI50 (Malme-3M) of the same compound?
Answer: 30.9 µM (inactive)

Question: And the GI50 (SF-295)?
Answer: 23.6 µM (inactive)

Question: And the GI50 (NCI-H460)?
Answer: 32.9 µM (inactive)

Question: What about the GI50 (COLO 205) of the same compound?
Answer: 22.6 µM (inactive)

Question: What about the GI50 (OVCAR-3) of the same compound?
Answer: 21.7 µM (inactive)

Question: What about the GI50 (ACHN) of the same compound?
Answer: 20 µM (inactive)

Question: And the GI50 (EKVX)?
Answer: 90.8 µM (inactive)

Question: Which GI50 (SK-MEL-2) does the source give for NNC(=O)/C(=C/c1ccc(Cl)c(Cl)c1)NC(=O)c1ccccc1 here?
Answer: > 100 µM (inactive)

Question: What about the GI50 (MOLT-4) of the same compound?
Answer: 80.5 µM (inactive)

Question: What about the GI50 (TK-10) of the same compound?
Answer: > 100 µM (inactive)

Question: And the GI50 (786-0)?
Answer: > 100 µM (inactive)

Question: And the GI50 (KM-20L2)?
Answer: > 100 µM (inactive)

Question: What about the GI50 (UO-31) of the same compound?
Answer: > 100 µM (inactive)

Question: And the GI50 (RXF 631)?
Answer: > 100 µM (inactive)

Question: What about the GI50 (M19-MEL) of the same compound?
Answer: > 100 µM (inactive)

Question: What about the GI50 (HCC 2998) of the same compound?
Answer: > 100 µM (inactive)

Question: What about the GI50 (KM12) of the same compound?
Answer: > 100 µM (inactive)

Question: And the GI50 (RPMI-8226)?
Answer: 38.5 µM (inactive)

Question: What about the GI50 (CCRF-CEM) of the same compound?
Answer: 92.5 µM (inactive)

Question: And the GI50 (UACC-257)?
Answer: > 100 µM (inactive)

Question: What about the GI50 (SN12C) of the same compound?
Answer: > 100 µM (inactive)

Question: And the GI50 (DLD-1)?
Answer: > 100 µM (inactive)

Question: What about the GI50 (OVCAR-8) of the same compound?
Answer: > 100 µM (inactive)

Question: And the GI50 (UACC-62)?
Answer: > 100 µM (inactive)

Question: And the GI50 (DMS-114)?
Answer: 61.8 µM (inactive)

Question: And the GI50 (A549)?
Answer: > 100 µM (inactive)

Question: And the GI50 (SNB-78)?
Answer: > 100 µM (inactive)

Question: And the GI50 (LXFL 529)?
Answer: > 100 µM (inactive)

Question: And the GI50 (NCI-H23)?
Answer: > 100 µM (inactive)

Question: And the GI50 (OVCAR-4)?
Answer: 76 µM (inactive)

Question: And the GI50 (HOP-62)?
Answer: > 100 µM (inactive)

Question: And the GI50 (M14)?
Answer: > 100 µM (inactive)

Question: And the GI50 (SW-620)?
Answer: > 100 µM (inactive)

Question: And the GI50 (SNB-75)?
Answer: > 100 µM (inactive)

Question: And the GI50 (SNB-19)?
Answer: > 100 µM (inactive)

Question: What about the GI50 (HCT-116) of the same compound?
Answer: > 100 µM (inactive)

Question: What about the GI50 (RXF 393) of the same compound?
Answer: > 100 µM (inactive)

Question: And the GI50 (SK-MEL-5)?
Answer: > 100 µM (inactive)

Question: What about the GI50 (HT-29) of the same compound?
Answer: > 100 µM (inactive)

Question: What about the GI50 (SK-MEL-28) of the same compound?
Answer: > 100 µM (inactive)

Question: What about the GI50 (U-251) of the same compound?
Answer: > 100 µM (inactive)

Question: And the GI50 (HL-60)?
Answer: > 100 µM (inactive)

Question: What about the GI50 (IGROV-1) of the same compound?
Answer: > 100 µM (inactive)

Question: What about the GI50 (SF-268) of the same compound?
Answer: > 100 µM (inactive)

Question: And the GI50 (LOX IMVI)?
Answer: > 100 µM (inactive)

Question: What about the GI50 (HOP-92) of the same compound?
Answer: 40.5 µM (inactive)

Question: What about the GI50 (XF498) of the same compound?
Answer: > 100 µM (inactive)

Question: And the GI50 (NCI-H226)?
Answer: > 100 µM (inactive)

Question: And the GI50 (OVCAR-5)?
Answer: > 100 µM (inactive)

Question: And the GI50 (Malme-3M)?
Answer: > 100 µM (inactive)

Question: What about the GI50 (SF-295) of the same compound?
Answer: > 100 µM (inactive)

Question: What about the GI50 (NCI-H460) of the same compound?
Answer: > 100 µM (inactive)

Question: And the GI50 (COLO 205)?
Answer: > 100 µM (inactive)

Question: What about the GI50 (OVCAR-3) of the same compound?
Answer: > 100 µM (inactive)

Question: What about the GI50 (ACHN) of the same compound?
Answer: > 100 µM (inactive)

Question: What about the GI50 (EKVX) of the same compound?
Answer: > 100 µM (inactive)
